The values below come from patent US20220017483A1, “AMINOPYRIDINE COMPOUND, PREPARATION METHOD THEREFOR AND USE THEREOF” (SICHUAN-KELUN-BIOTECH BIOPHARMACEUTICAL CO., LTD, priority 2018, published 2022).

Where two headings read alike, the source gives them in different places.

Experiment [1] deals with T1, A2a receptor cell membrane (human origin) (Homo sapiens, UniProt P29274).
T1 construct: purchased PerkinElmer RBHA2AM400UA
As to the kind of experiment: Competitive inhibition constant (Ki) for adenosine A2a receptor, [3H]-CGS-21680 radioligand binding. The settings on record: for Ki(A1)/Ki(A2a): selectivity ratio A1 over A2a. The method, then: A2a receptor cell membrane (human origin): PerkinElmer, RBHA2AM400UA
A2a test buffer: 50 mM Tris-HCl, 10 mM MgCl2, 1 mM EDTA, pH7.4
(§1) The A1 receptor cell membrane was diluted to 0.025 μg/μl with the A1 test buffer and the A2a receptor cell membrane was diluted to 0.05 μg/μl with the A2a test buffer to obtain an A1 receptor cell membrane dilution and an A2a receptor cell membrane dilution.
(§2) The tested compound and CGS15943 were gradiently diluted with DMSO. 1 μl test compound, high-value control (0.5% DMSO), low-value control (1000 nM CGS15943) were added to a 96-well plate, wherein each well was added with 100 μl A1 receptor cell membrane dilution (containing 2.5 μg cell membrane) to obtain an A1 detection plate. Through the same steps, 100 μl A2a receptor cell membrane dilution (containing 5.0 μg cell membrane) was added to each well of a 96-well plate to obtain an A2a detection plate.
The A1 and A2a detection plates were sealed with a tap, and incubated at room temperature for 1 h and 2 h, respectively.
(§3) Unifilter-96 GF/C filter plate was prepared. The Unifilter-96 GF/C filter plate was added with 50 μl 0.3% PEI in each well, and incubated at room temperature for no less than 0.5 h.
(§4) After the incubation, the reaction solutions in the A1 detection plate and the A2a detection plate were transferred to two Unifilter-96 GF/C filter plates. The filter plates were washed with the corresponding pre-cooled washing buffers, then oven dried. After sealing the bottom of the filter plates, 50 μl of Microscint 20 cocktail scintillation fluid was added. After sealing the top of the filter plates, the plates were read in the counter MicroBeta2 Reader.
(§5) Data analysis: The inhibition rate was calculated according to the following formula:
(§6) Inhibition rate %=100−(the signal value of the tested wells−the signal average of the low-value control)/(the signal average of the high-value control−the signal average of the low-value control)*100.
(§7) IC50 was fitted by EXCEL XLfit. The competitive inhibition constant (Ki) was calculated according to the formula: Ki=IC50/(1+the concentration of the isotope-labelled ligands/Kd); Kd is the dissociation constant of the isotope-labeled ligands.

In experiment [2] the target is T2, A1 receptor cell membrane (human origin) (Homo sapiens, UniProt P30542).
T2 construct: purchased PerkinElmer ES-010-M400UA
T2 sequence (P30542 1-326): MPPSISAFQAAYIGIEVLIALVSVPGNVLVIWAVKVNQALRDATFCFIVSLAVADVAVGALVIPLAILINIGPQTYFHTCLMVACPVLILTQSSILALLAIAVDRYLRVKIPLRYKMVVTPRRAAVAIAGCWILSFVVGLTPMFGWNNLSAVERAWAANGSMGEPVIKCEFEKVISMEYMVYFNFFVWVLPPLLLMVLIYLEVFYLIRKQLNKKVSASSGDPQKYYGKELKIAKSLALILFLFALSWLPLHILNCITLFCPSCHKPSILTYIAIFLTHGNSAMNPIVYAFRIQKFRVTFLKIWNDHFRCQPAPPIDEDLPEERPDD
Nature of the experiment: Competitive inhibition constant (Ki) for adenosine A1 receptor, [3H]-DPCPX radioligand binding. Conditions: [3H]-DPCPX 1.0 nM. The method, then: Experimental Example 1: Determination of the Competitive Inhibition Constant (Ki) for Adenosine A1 and A2a Receptors
[^3H]-DPCPX: PerkinElmer, NET974250UC
A1 receptor cell membrane (human origin): PerkinElmer, ES-010-M400UA
A1 test buffer: 25 mM HEPES, 5 mM MgCl2, 1 mM CaCl2, 100 mM NaCl, pH7.4
A1 washing buffer: 25 mM HEPES, 5 mM MgCl2, 1 mM CaCl2, 100 mM NaCl, pH7.4
as §1, §2
100 μl of radioisotope-labelled ligand [^3H]-DPCPX (diluted in A1 test buffer, working concentration 1.0 nM) was added to the A1 detection plate, and 100 μl of radioisotope-labelled ligand [^3H]-CGS-21680 (diluted in A2a test buffer, working concentration 6.0 nM) was added to the A2a detection plate. The A1 and A2a detection plates were sealed with a tap, and incubated at room temperature for 1 h and 2 h, respectively.
as §3, §4, §5, §6, §7

Setting [3] is: human A2a receptor cell membrane, [3H]-CGS-21680 6.0 nM, read-out: Ki(A2a).

T1 sequence (P29274 whole entry): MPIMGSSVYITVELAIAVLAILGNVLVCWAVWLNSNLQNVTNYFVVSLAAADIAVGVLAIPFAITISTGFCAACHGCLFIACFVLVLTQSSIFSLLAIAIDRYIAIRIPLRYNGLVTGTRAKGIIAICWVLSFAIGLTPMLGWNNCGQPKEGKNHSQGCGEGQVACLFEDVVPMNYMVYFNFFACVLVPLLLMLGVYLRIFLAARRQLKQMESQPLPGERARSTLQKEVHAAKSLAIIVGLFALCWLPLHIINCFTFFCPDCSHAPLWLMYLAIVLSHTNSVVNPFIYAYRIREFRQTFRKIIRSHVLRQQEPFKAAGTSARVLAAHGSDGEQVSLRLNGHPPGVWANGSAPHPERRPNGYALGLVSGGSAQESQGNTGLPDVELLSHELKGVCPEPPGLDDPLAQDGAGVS

With `Cc1ncnc2ccc(-c3ccc(N)nc3-c3ccc(F)cc3)cc12` [Compound 1, 6-(4-fluorophenyl)-5-(4-methylquinazolin-6-yl)pyridin-2-amine], the “Ki(A1)/Ki(A2a)” value in experiment [1] amounted to 339.0.

Turning to `Cc1ncnc2ccc(-c3cc(Br)c(N)nc3-c3ccc(F)cc3)cc12` [Compound 2, 3-bromo-6-(4-fluorophenyl)-5-(4-methylquinazolin-6-yl)pyridin-2-amine], the Ki in experiment [1] (setting [3]) worked out at 2.6 nM; in experiment [2], 291 nM. Also, in experiment [1], the “Ki(A1)/Ki(A2a)” value is recorded as 112.1.

For `COC(=O)c1cc(-c2ccc3ncnc(C)c3c2)c(-c2ccc(F)cc2)nc1N` [Compound 3, methyl 2-amino-6-(4-fluorophenyl)-5-(4-methylquinazolin-6-yl) nicotinate], the Ki in experiment [1] (setting [3]) was 4.9 nM; in experiment [2], 1090 nM. Further, the “Ki(A1)/Ki(A2a)” value in experiment [1] came to 222.8.

Consider `Cc1ncnc2ccc(-c3cc(C(=O)O)c(N)nc3-c3ccc(F)cc3)cc12` [Compound 4, 2-amino-6-(4-fluorophenyl)-5-(4-methylquinazolin-6-yl)nicotinic acid], for which the Ki in experiment [1] (setting [3]) was 25.6 nM; in experiment [2] it was 7510 nM. In experiment [1], the “Ki(A1)/Ki(A2a)” value is recorded as 293.5.

With `Cc1ncnc2ccc(-c3cc(C#N)c(N)nc3-c3ccc(F)cc3)cc12` [Compound 5, 2-amino-6-(4-fluorophenyl)-5-(4-methylquinazolin-6-yl) nicotinonitrile], the Ki in experiment [1] (setting [3]) came out at 2.1 nM; in experiment [2] it was 683 nM. Also, the “Ki(A1)/Ki(A2a)” value in experiment [1] is 325.3.

As for `CNC(=O)c1cc(-c2ccc3ncnc(C)c3c2)c(-c2ccc(F)cc2)nc1N` [Compound 7, 2-amino-6-(4-fluorophenyl)-N-methyl-5-(4-methylquinazolin-6-yl) nicotinamide], the figures for the inhibitory constant (Ki) in experiment [1] (setting [3]) and in experiment [2] were 20.2 nM and 4950 nM, respectively. In addition, the “Ki(A1)/Ki(A2a)” value in experiment [1] was 245.0.

With `Cc1ncnc2ccc(-c3cc(-c4cnn(C)c4)c(N)nc3-c3ccc(F)cc3)cc12` [Compound 8, 6-(4-fluorophenyl)-3-(1-methyl-1H-pyrazol-4-yl)-5-(4-methylquinazolin-6-yl)pyridin-2-amine], the Ki in experiment [1] (setting [3]) was 4.8 nM; in experiment [2], 713 nM. Moreover, the “Ki(A1)/Ki(A2a)” value in experiment [1] is recorded as 148.5.

As to `Cc1ncnc2ccc(-c3cc(-c4nnn[nH]4)c(N)nc3-c3ccc(F)cc3)cc12` [Compound 9, 6-(4-fluorophenyl)-5-(4-methylquinazolin-6-yl)-3-(1H-tetrazol-5-yl) pyridin-2-amine], the inhibition constant Ki in experiment [1] (setting [3]) turned out to be 12.6 nM; in experiment [2] it was 1070 nM. Further, in experiment [1], the “Ki(A1)/Ki(A2a)” value is recorded as 85.3.

For the molecule `Cc1ncnc2ccc(-c3c(Cl)cc(N)nc3-c3ccc(F)cc3)cc12` [Compound 10, 4-chloro-6-(4-fluorophenyl)-5-(4-methylquinazolin-6-yl)pyridin-2-amine], the Ki in experiment [1] (setting [3]) turned out to be 2 nM; in experiment [2], 438 nM. In addition, the “Ki(A1)/Ki(A2a)” value in experiment [1] is 219.0.

For `Cc1ncnc2ccc(-c3c(C#N)cc(N)nc3-c3ccc(F)cc3)cc12` [Compound 11, 6-amino-2-(4-fluorophenyl)-3-(4-methylquinazolin-6-yl) isonicotinonitrile], the Ki in experiment [1] (setting [3]) came out at 1.4 nM; in experiment [2] it was 205 nM. Also, in experiment [1], the “Ki(A1)/Ki(A2a)” value was determined as 146.5.

On to `Cc1ncnc2ccc(-c3cc(C(N)=O)c(N)nc3-c3cc(F)cc(F)c3)cc12` [Compound 12, 2-amino-6-(3,5-difluorophenyl)-5-(4-methylquinazolin-6-yl) nicotinamide], for which the figures for the Ki in experiment [1] (setting [3]) and in experiment [2] were 6.8 nM and 374 nM, respectively. Moreover, in experiment [1], the “Ki(A1)/Ki(A2a)” value is listed as 54.9.

Regarding `Cc1ncnc2ccc(-c3cc(C(N)=O)c(N)nc3-c3ccccc3F)cc12` [Compound 13, 2-amino-6-(2-fluorophenyl)-5-(4-methylquinazolin-6-yl) nicotinamide], the Ki turned out to be 12.2 nM in experiment [1] (setting [3]) and 4380 nM in experiment [2]. Also, in experiment [1], the “Ki(A1)/Ki(A2a)” value is recorded as 359.0.

Consider `Cc1ncnc2ccc(-c3cc(-c4cnn(CCN(C)C)c4)c(N)nc3-c3ccc(F)cc3)cc12` [Compound 16, 3-(1-(2-(dimethylamino)ethyl)-1H-pyrazol-4-yl)-6-(4-fluorophenyl)-5-(4-methylquinazolin-6-yl)pyridin-2-amine], for which the Ki in experiment [1] (setting [3]) was determined as 16.7 nM; in experiment [2], 1380 nM. The “Ki(A1)/Ki(A2a)” value in experiment [1] is 82.6.

Turning to `COCCn1cc(-c2cc(-c3ccc4ncnc(C)c4c3)c(-c3ccc(F)cc3)nc2N)cn1` [Compound 17, 6-(4-fluorophenyl)-3-(1-(2-methoxyethyl)-1H-pyrazol-4-yl)-5-(4-methylquinazolin-6-yl)pyridin-2-amine], in experiment [1], affinity was put at a Ki of 2.3 nM and the “Ki(A1)/Ki(A2a)” value worked out at 137.3. In experiment [2], the Ki came to 316 nM.

Regarding `Cc1ccnc2ccc(-c3cc(C(N)=O)c(N)nc3-c3ccc(F)cc3)cc12` [Compound 22, 2-amino-6-(4-fluorophenyl)-5-(4-methylquinolin-6-yl)nicotinamide], the Ki in experiment [1] (setting [3]) was found to be 1.6 nM; in experiment [2] it was 106 nM. Also, the “Ki(A1)/Ki(A2a)” value in experiment [1] turned out to be 66.3.

As to `Cc1ncnc2ccc(-c3cc(-n4cc(C(N)=O)cn4)c(N)nc3-c3ccc(F)cc3)cc12` [Compound 24, 1-(2-amino-6-(4-fluorophenyl)-5-(4-methylquinazolin-6-yl)pyridin-3-yl)-1H-pyrazol-4-carboxamide], the results for the Ki in experiment [1] (setting [3]) and in experiment [2] were 23.2 nM and 3480 nM, respectively. In experiment [1], the “Ki(A1)/Ki(A2a)” value stood at 150.0.

Take `Cc1ncnc2ccc(-c3cc(-c4nnc(C(N)=O)o4)c(N)nc3-c3ccc(F)cc3)cc12` [Compound 25, 5-(2-amino-6-(4-fluorophenyl)-5-(4-methylquinazolin-6-yl)pyridin-3-yl)-1,3,4-oxadiazol-2-carboxamide]: the Ki was found to be 2.3 nM in experiment [1] (setting [3]) and 132 nM in experiment [2]. Further, the “Ki(A1)/Ki(A2a)” value in experiment [1] came to 57.6.

Regarding `Cc1cc(-c2cc(-n3cc(C(N)=O)cn3)c(N)nc2-c2ccc(F)cc2)cc(Cl)n1` [Compound 26, 1-(6-amino-2′-chloro-2-(4-fluorophenyl)-6′-methyl-[3,4′-bipyridine]-5-yl)-1H-pyrazol-4-carboxamide], the Ki stood at 104 nM in experiment [1] (setting [3]) and 4850 nM in experiment [2].

As for `Cc1ccnc2ccc(-c3cc(-c4nnc(C(N)=O)o4)c(N)nc3-c3ccc(F)cc3)cc12` [Compound 29, 5-(2-amino-6-(4-fluorophenyl)-5-(4-methylquinolin-6-yl)pyridin-3-yl)-1,3,4-oxadiazol-2-carboxamide], the Ki was found to be 1.2 nM in experiment [1] (setting [3]) and 30 nM in experiment [2]. Besides, in experiment [1], the “Ki(A1)/Ki(A2a)” value amounted to 25.0.

`Cc1cc(-c2cc(-c3cnn(CCC(N)=O)c3)c(N)nc2-c2ccc(F)cc2)cc(Cl)n1` [Compound 30, 3-(4-(6-amino-2′-chloro-2-(4-fluorophenyl)-6′-methyl-[3,4′-bipyridine]-5-yl)-1H-pyrazol-1-yl)propionamide]: in experiment [1], affinity was put at a Ki of 50.8 nM and the “Ki(A1)/Ki(A2a)” value came to 38.0. Further, the Ki in experiment [2] came to 1930 nM.

`Cc1ccnc2ccc(-c3cc(-c4cnn(CCC(N)=O)c4)c(N)nc3-c3ccc(F)cc3)cc12` [Compound 31, 3-(4-(2-amino-6-(4-fluorophenyl)-5-(4-methylquinolin-6-yl)pyridin-3-yl)-1H-pyrazol-1-yl)propionamide]: in experiment [1], the affinity corresponds to a Ki of 1.6 nM and the “Ki(A1)/Ki(A2a)” value is listed as 91.0. Also, in experiment [2], the Ki came out at 146 nM.

As to `NC(=O)c1cc(-c2ccncc2)c(-c2cccc(F)c2)nc1N` [Control compound 1, reference compound], the Ki in experiment [1] (setting [3]) was 138 nM; in experiment [2], 25.7 nM. Besides, in experiment [1], the “Ki(A1)/Ki(A2a)” value was determined as 0.2.

One may read the Ki as the dissociation constant of the complex between target and ligand, obtained from inhibition or displacement.
